Here are results for one compound from PMC3940079 (International Journal for Parasitology: Drugs and Drug …, 2013).

The target in assay [1] is T1, P2 aminopurine transporter (TbAT1) (Trypanosoma brucei, UniProt Q9Y0I0).
T1 sequence (Q9Y0I0 1-463): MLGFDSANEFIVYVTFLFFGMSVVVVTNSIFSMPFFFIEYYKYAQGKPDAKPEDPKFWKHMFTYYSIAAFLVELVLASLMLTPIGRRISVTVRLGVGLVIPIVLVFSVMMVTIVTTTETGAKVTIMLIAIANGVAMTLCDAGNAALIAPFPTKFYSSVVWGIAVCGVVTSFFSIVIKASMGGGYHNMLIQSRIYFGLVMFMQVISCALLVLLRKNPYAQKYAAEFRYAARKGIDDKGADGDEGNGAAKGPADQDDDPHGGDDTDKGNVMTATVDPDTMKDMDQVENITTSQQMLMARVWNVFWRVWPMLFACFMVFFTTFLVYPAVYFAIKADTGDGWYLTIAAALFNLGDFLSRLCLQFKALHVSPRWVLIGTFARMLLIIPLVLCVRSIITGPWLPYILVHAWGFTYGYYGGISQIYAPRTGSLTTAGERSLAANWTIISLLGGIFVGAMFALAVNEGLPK
The assay is described as follows: inhibition of […] [3H]-adenosine uptake. It counts as cell-based.

In assay [2] the target is H3 nucleobase transporter. In words: inhibition of […] [3H]-hypoxanthine uptake in bloodstream-form trypanosomes. It is filed as cell-based, Trypanosoma brucei brucei.
Assay [3] deals with H2 nucleobase transporter. The description is as above. It counts as cell-based, Trypanosoma brucei brucei.

What is called Ki is the dissociation constant of the complex between target and ligand, obtained from inhibition or displacement. A lower Ki goes with tighter binding.

`Nc1ncnc2n[nH]cc12` [aminopurinol]: the Ki in assay [1] turned out to be 75.3 ± 5.7 µM; in assay [2], 105 ± 24 µM; in assay [3], 230 ± 35 µM.
